PubChem BioAssay AID2060900 (Molecular Pharmacology Branch, DTP, NCI, 2025)
Each block holds one compound with its values, some of them ahead of it.

System: 521955-158-R2-J5-PDC complex spheroids, viability
Experiment: Anticancer human tumor 521955-158-R2-J5-PDC patient-derived pancreatic carcinoma cell line growth inhibition [RAS]
Details: for IC50: curve of first compound; for viability, T/C: stronger effect = lower value
How it was run: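 Agents were tested in combination matrices in half-log decrements from a top concentration at or near clinical Cmax (10 microM if undetermined). Targets were multi-cell spheroids of tumour lines plus HUVEC and MSC stromal cells.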

[1] = second compound 0.0316 µM, first compound 0.00316 µM
[2] = second compound 0.0316 µM, first compound 0.01 µM
[3] = second compound 0.0316 µM, first compound 0.0316 µM
[4] = second compound 0.0316 µM, first compound 0.1 µM
[5] = second compound 0.0316 µM, first compound 0.316 µM
[6] = second compound 0.0316 µM, first compound 1 µM
[7] = second compound 0.1 µM, first compound 0.00316 µM
[8] = second compound 0.1 µM, first compound 0.01 µM
[9] = second compound 0.1 µM, first compound 0.0316 µM
[10] = second compound 0.1 µM, first compound 0.1 µM
[11] = second compound 0.1 µM, first compound 0.316 µM
[12] = second compound 0.1 µM, first compound 1 µM
[13] = second compound 0.316 µM, first compound 0.00316 µM
[14] = second compound 0.316 µM, first compound 0.01 µM
[15] = second compound 0.316 µM, first compound 0.0316 µM
[16] = second compound 0.316 µM, first compound 0.1 µM
[17] = second compound 0.316 µM, first compound 0.316 µM
[18] = second compound 0.316 µM, first compound 1 µM
[19] = second compound 1 µM, first compound 0.00316 µM
[20] = second compound 1 µM, first compound 0.01 µM
[21] = second compound 1 µM, first compound 0.0316 µM
[22] = second compound 1 µM, first compound 0.1 µM
[23] = second compound 1 µM, first compound 0.316 µM
[24] = second compound 1 µM, first compound 1 µM
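Further: compound exposure lasted seven days before the viability read.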
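Wherever viability, T/C is given: spheroids also contain HUVEC endothelial cells and mesenchymal stem cells as stroma.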

IC50 (second compound 0.0316 µM): 13.9 nM
IC50 (second compound 0.1 µM): 9.71 nM
IC50 (second compound 0.316 µM): 5.09 nM
IC50 (second compound 1 µM): < 3.16 nM
IC50 (second compound 3.16 µM): < 3.16 nM
IC50 (second compound 10 µM): < 3.16 nM
SMILES: O=C(c1ccc(F)c(F)c1Nc1ccc(I)cc1F)N1CC(O)([C@@H]2CCCCN2)C1 + C#Cc1c(F)ccc2cc(O)cc(-c3ncc4c(N5CC6CCC(C5)N6)nc(OCC56CCCN5CC(F)C6)nc4c3F)c12
viability, T/C [1]: 57.3%
viability, T/C [2]: 53%
viability, T/C [3]: 43.3%
viability, T/C [4]: 35.2%
viability, T/C [5]: 23.4%
viability, T/C [6]: 15.4%
viability, T/C [7]: 54.5%
viability, T/C [8]: 54.2%
viability, T/C [9]: 34.3%
viability, T/C [10]: 29.3%
viability, T/C [11]: 20.1%
viability, T/C [12]: 15%
viability, T/C [13]: 51.5%
viability, T/C [14]: 47.6%
viability, T/C [15]: 38.4%
viability, T/C [16]: 36%
viability, T/C [17]: 19.1%
viability, T/C [18]: 17%
viability, T/C [19]: 44.6%
viability, T/C [20]: 43%
viability, T/C [21]: 38.6%
viability, T/C [22]: 23.2%
viability, T/C [23]: 14.4%
viability, T/C [24]: 12.4%
viability, T/C (second compound 3.16 µM, first compound 0.00316 µM): 43.9%
viability, T/C (second compound 3.16 µM, first compound 0.01 µM): 41.9%
viability, T/C (second compound 3.16 µM, first compound 0.0316 µM): 27%
viability, T/C (second compound 3.16 µM, first compound 0.1 µM): 18.4%
viability, T/C (second compound 3.16 µM, first compound 0.316 µM): 10.9%
viability, T/C (second compound 3.16 µM, first compound 1 µM): 7.26%
viability, T/C (second compound 10 µM, first compound 0.00316 µM): 41.3%
viability, T/C (second compound 10 µM, first compound 0.01 µM): 29.1%
viability, T/C (second compound 10 µM, first compound 0.0316 µM): 27.2%
viability, T/C (second compound 10 µM, first compound 0.1 µM): 15.3%
viability, T/C (second compound 10 µM, first compound 0.316 µM): 2.76%
viability, T/C (second compound 10 µM, first compound 1 µM): 2.89%

IC50 (second compound 0.00316 µM): 970 nM
IC50 (second compound 0.01 µM): 898 nM
IC50 (second compound 0.0316 µM): > 1000 nM
IC50 (second compound 0.1 µM): 757 nM
IC50 (second compound 0.316 µM): 636 nM
IC50 (second compound 1 µM): 757 nM
SMILES: C=CC(=O)Nc1cc(Nc2nccc(-c3cn(C)c4ccccc34)n2)c(OC)cc1N(C)CCN(C)C + C=CC(=O)N1CCN(c2nc(OCC3CCCN3C)nc3c(F)c(-c4nc(N)cc(C)c4C(F)(F)F)c(Cl)cc23)C(C)C1
viability, T/C (second compound 0.00316 µM, first compound 0.00316 µM): 106%
viability, T/C (second compound 0.00316 µM, first compound 0.01 µM): 78.6%
viability, T/C (second compound 0.00316 µM, first compound 0.0316 µM): 90.5%
viability, T/C (second compound 0.00316 µM, first compound 0.1 µM): 81.2%
viability, T/C (second compound 0.00316 µM, first compound 0.316 µM): 86.4%
viability, T/C (second compound 0.00316 µM, first compound 1 µM): 48.9%
viability, T/C (second compound 0.01 µM, first compound 0.00316 µM): 87.8%
viability, T/C (second compound 0.01 µM, first compound 0.01 µM): 63.4%
viability, T/C (second compound 0.01 µM, first compound 0.0316 µM): 77.8%
viability, T/C (second compound 0.01 µM, first compound 0.1 µM): 108%
viability, T/C (second compound 0.01 µM, first compound 0.316 µM): 74.1%
viability, T/C (second compound 0.01 µM, first compound 1 µM): 47.5%
viability, T/C [1]: 80.1%
viability, T/C [2]: 63.5%
viability, T/C [3]: 96.5%
viability, T/C [4]: 107%
viability, T/C [5]: 68.1%
viability, T/C [6]: 50.4%
viability, T/C [7]: 68.1%
viability, T/C [8]: 81.4%
viability, T/C [9]: 74.8%
viability, T/C [10]: 85.3%
viability, T/C [11]: 73.6%
viability, T/C [12]: 42.2%
viability, T/C [13]: 121%
viability, T/C [14]: 82.2%
viability, T/C [15]: 95.9%
viability, T/C [16]: 70.1%
viability, T/C [17]: 67.8%
viability, T/C [18]: 39%
viability, T/C [19]: 106%
viability, T/C [20]: 72.8%
viability, T/C [21]: 78.7%
viability, T/C [22]: 73.9%
viability, T/C [23]: 64%
viability, T/C [24]: 42.1%
